Literature values, collected in article PMC12150326 (The Journal of Organic Chemistry, 2025).
Several values for one entry are separate records, joined by “and”; a condition that tells them apart may be missing. Identical values can stand only once. Like-named read-outs stand apart in the source and are kept apart here.

Experiments:
Set-up in all cases: method as in NCI-60 database
T-47D = T-47D ref NCI-60 database, cited from earlier work
PC-3 = PC-3 ref NCI-60 database, cited from earlier work
A549/ATCC = A549/ATCC ref NCI-60 database, cited from earlier work
MOLT-4 = MOLT-4 ref NCI-60 database, cited from earlier work
OVCAR-4 = OVCAR-4 ref NCI-60 database, cited from earlier work
CAKI-1 = CAKI-1 ref NCI-60 database, cited from earlier work
NCI 60 cell lines = conditions: cited from earlier work; for _MID Log10LC50: mean graph midpoint ref NCI-60 database
MDA-MB-231/ATCC = MDA-MB-231/ATCC ref NCI-60 database, cited from earlier work
M14 = M14 ref NCI-60 database, cited from earlier work
SNB-19 = SNB-19 ref NCI-60 database, cited from earlier work
NCI-H522 = NCI-H522 ref NCI-60 database, cited from earlier work
KM20L2 = KM20L2 ref NCI-60 database, cited from earlier work
SF-268 = SF-268 ref NCI-60 database, cited from earlier work
HT29 = HT29 ref NCI-60 database, cited from earlier work
HCT-15 = HCT-15 ref NCI-60 database, cited from earlier work
UACC-62 = UACC-62 ref NCI-60 database, cited from earlier work
OVCAR-3 = OVCAR-3 ref NCI-60 database, cited from earlier work
[1] = mean graph ref NCI-60 database, listed as 757/1
[2] = mean graph ref NCI-60 database, listed as 757/9

COc1cc2c(c(OC)c1OC)-c1ccc(OC)c(=O)cc1[C@@H](NC(C)=O)CC2 [Colchicine, (−)-Colchicine]
GI50 (T-47D): 75700 nM | Log10GI50 (T-47D): -4.12 Molar | Log10LC50 (T-47D): > -4.00 Molar | Log10TGI (T-47D): > -4.00 Molar | Log10GI50 (T-47D; listed as 757/9): > -4.00 Molar | Log10GI50 (T-47D; listed as 757/21): -4.21 Molar | GI50 (PC-3): 24 nM | Log10GI50 (PC-3): -7.62 Molar | Log10LC50 (PC-3): > -4.00 Molar | Log10GI50 (PC-3; listed as 757/9): -7.65 Molar | Log10TGI (PC-3; listed as 757/9): -6.37 Molar | Log10GI50 (PC-3; listed as 757/21): -7.62 Molar | Log10TGI (PC-3; listed as 757/21): > -4.00 Molar | GI50 (A549/ATCC): 260 nM | Log10GI50 (A549/ATCC): -6.58 Molar | Log10LC50 (A549/ATCC): > -4.00 Molar | Log10TGI (A549/ATCC): > -4.00 Molar | Log10GI50 (A549/ATCC; listed as 757/9): -6.57 Molar | GI50 (MOLT-4): 40 nM | Log10GI50 (MOLT-4): -7.45 Molar | Log10GI50 (MOLT-4; listed as 757/9): -7.60 Molar | Log10LC50 (MOLT-4; listed as 757/9): -4.90 Molar | Log10TGI (MOLT-4; listed as 757/9): < -8.00 Molar | Log10LC50 (MOLT-4; listed as 757/21): > -4.00 Molar | Log10TGI (MOLT-4; listed as 757/21): > -4.00 Molar | GI50 (OVCAR-4): 93300 nM | Log10GI50 (OVCAR-4): -4.03 Molar | Log10LC50 (OVCAR-4): > -4.00 Molar | Log10TGI (OVCAR-4): > -4.00 Molar | Log10GI50 (OVCAR-4; listed as 757/1): -4.45 Molar | Log10LC50 (CAKI-1): > -4.00 Molar | Log10GI50 (CAKI-1; listed as 757/1): < -8.00 Molar | Log10TGI (CAKI-1; listed as 757/1): > -4.00 Molar | Log10GI50 (CAKI-1; listed as 757/9): -6.57 Molar | Log10TGI (CAKI-1; listed as 757/9): -6.69 Molar | _MID Log10LC50 (NCI 60 cell lines; listed as 757/1): -4.07 Molar and -4.08 Molar | _MID Log10LC50 (NCI 60 cell lines; listed as 757/21): -4.0 Molar and -4.12 Molar and -4.01 Molar | Delta Log10GI50 (NCI 60 cell lines; [1]): 0.39 and 0.68 | Delta Log10LC50 (NCI 60 cell lines; [1]): 3.26 and 3.02 | Delta Log10TGI (NCI 60 cell lines; [1]): 3.04 and 2.76 | Range Log10GI50 (NCI 60 cell lines; [1]): 3.72 | Range Log10LC50 (NCI 60 cell lines; [1]): 3.33 and 3.1 | Range Log10TGI (NCI 60 cell lines; [1]): 3.41 | Range Log10GI50 (NCI 60 cell lines; [2]): 1.41 | Range Log10LC50 (NCI 60 cell lines; [2]): 4.0 | Range Log10TGI (NCI 60 cell lines; mean graph ref NCI-60 database, listed as 757/21): 3.89 | GI50 (MDA-MB-231/ATCC): 7080 nM | Log10GI50 (MDA-MB-231/ATCC): -5.15 Molar | Log10LC50 (MDA-MB-231/ATCC): > -4.00 Molar | Log10TGI (MDA-MB-231/ATCC): > -4.00 Molar | Log10GI50 (MDA-MB-231/ATCC; listed as 757/9): < -8.00 Molar and -7.78 Molar | Log10GI50 (MDA-MB-231/ATCC; listed as 757/21): -5.15 Molar | GI50 (M14): 55 nM | Log10GI50 (M14): -7.26 Molar | Log10LC50 (M14): > -4.00 Molar | Log10GI50 (M14; listed as 757/9): -7.68 Molar | Log10TGI (M14; listed as 757/9): -6.43 Molar | GI50 (SNB-19): 40 nM | Log10GI50 (SNB-19): -7.43 Molar | Log10LC50 (SNB-19): > -4.00 Molar | Log10GI50 (SNB-19; listed as 757/1): < -8.00 Molar | Log10GI50 (SNB-19; listed as 757/9): -7.55 Molar | Log10GI50 (SNB-19; listed as 757/21): -7.22 Molar and -7.43 Molar | GI50 (NCI-H522): 10 nM | Log10GI50 (NCI-H522): -7.84 Molar | Log10LC50 (NCI-H522): > -4.00 Molar | Log10GI50 (NCI-H522; listed as 757/1): -7.64 Molar | Log10TGI (NCI-H522; listed as 757/1): -7.26 Molar | Log10TGI (NCI-H522; listed as 757/9): -7.46 Molar | Log10GI50 (NCI-H522; listed as 757/21): < -8.00 Molar and -7.98 Molar and -7.84 Molar | Log10GI50 (KM20L2; listed as 757/1): < -8.00 Molar and -7.72 Molar | Log10LC50 (KM20L2; listed as 757/1): -7.10 Molar | Log10GI50 (KM20L2; listed as 757/21): -7.77 Molar | Log10LC50 (KM20L2; listed as 757/21): -7.19 Molar | Log10TGI (KM20L2; listed as 757/21): -7.48 Molar | GI50 (SF-268): 4680 nM | Log10GI50 (SF-268): -5.33 Molar | Log10LC50 (SF-268): > -4.00 Molar | Log10GI50 (SF-268; listed as 757/9): -7.12 Molar | Log10TGI (SF-268; listed as 757/9): -6.03 Molar | Log10TGI (SF-268; listed as 757/21): > -4.00 Molar | GI50 (HT29): 30 nM | Log10GI50 (HT29): -7.55 Molar | Log10LC50 (HT29): > -4.00 Molar | Log10TGI (HT29; listed as 757/1): -4.61 Molar | Log10GI50 (HT29; listed as 757/9): -7.32 Molar | Log10TGI (HT29; listed as 757/9): -6.43 Molar | GI50 (HCT-15): 210 nM | Log10GI50 (HCT-15): -6.68 Molar | Log10LC50 (HCT-15; listed as 757/9): -5.60 Molar | Log10LC50 (HCT-15; listed as 757/21): > -4.00 Molar | GI50 (UACC-62): 21 nM | Log10GI50 (UACC-62): -7.67 Molar | Log10GI50 (UACC-62; listed as 757/1): -7.19 Molar | Log10GI50 (UACC-62; listed as 757/9): -6.40 Molar | Log10LC50 (UACC-62; listed as 757/9): -6.18 Molar | Log10TGI (UACC-62; listed as 757/9): -7.72 Molar | Log10LC50 (UACC-62; listed as 757/21): > -4.00 Molar and -4.22 Molar | Log10GI50 (OVCAR-3; listed as 757/1): -7.58 Molar | Log10LC50 (OVCAR-3; listed as 757/1): > -4.00 Molar | Log10TGI (OVCAR-3; listed as 757/1): -7.12 Molar | Log10GI50 (OVCAR-3; listed as 757/9): -7.81 Molar | Log10LC50 (OVCAR-3; listed as 757/9): < -8.00 Molar | Log10TGI (OVCAR-3; listed as 757/9): -7.44 Molar | Log10GI50 (OVCAR-3; listed as 757/21): < -8.00 Molar and -7.73 Molar
